How the values were obtained:
[1] = target: T1, human GLP-1 receptor (Homo sapiens, UniProt P43220); assay: In vitro potency: stimulation of cAMP formation in membranes expressing the human GLP-1 receptor (AlphaScreen cAMP Assay); format: biochemical; parameters: expressed in transfected cells; membranes; settings: purified plasma membranes from BHK467-12A (tk-ts13) expressing the human GLP-1 receptor
Procedure: Purified plasma membranes from a stable transfected cell line, BHK467-12A (tk-ts13), expressing the human GLP-1 receptor were stimulated with the GLP-1 receptor agonist derivative in question, and the potency of cAMP production was measured using the AlphaScreen™ cAMP Assay Kit from Perkin Elmer Life Sciences. The basic principle of The AlphaScreen Assay is a competition between endogenous cAMP and exogenously added biotin-cAMP. The capture of cAMP is achieved by using a specific antibody conjugated to acceptor beads.
A stable transfected cell line and a high expressing clone were selected for screening. The cells were grown at 5% CO2 in DMEM, 5% FCS, 1% Pen/Strep (Penicillin/Streptomycin) and 0.5 mg/ml of the selection marker G418.
Cells at approximate 80% confluence were washed 2× with PBS and harvested with Versene (aqueous solution of the tetrasodium salt of ethylenediaminetetraacetic acid), centrifuged 5 min at 1000 rpm and the supernatant removed. The additional steps were all made on ice. The cell pellet was homogenised by the Ultrathurax for 20-30 sec. in 10 ml of Buffer 1 (20 mM Na-HEPES, 10 mM EDTA, pH=7.4), centrifuged 15 min at 20.000 rpm and the pellet resuspended in 10 ml of Buffer 2 (20 mM Na-HEPES, 0.1 mM EDTA, pH=7.4). […] The protein concentration was determined and the membranes stored at −80° C. until use. […]
Target sequence in this assay (P43220 24-463): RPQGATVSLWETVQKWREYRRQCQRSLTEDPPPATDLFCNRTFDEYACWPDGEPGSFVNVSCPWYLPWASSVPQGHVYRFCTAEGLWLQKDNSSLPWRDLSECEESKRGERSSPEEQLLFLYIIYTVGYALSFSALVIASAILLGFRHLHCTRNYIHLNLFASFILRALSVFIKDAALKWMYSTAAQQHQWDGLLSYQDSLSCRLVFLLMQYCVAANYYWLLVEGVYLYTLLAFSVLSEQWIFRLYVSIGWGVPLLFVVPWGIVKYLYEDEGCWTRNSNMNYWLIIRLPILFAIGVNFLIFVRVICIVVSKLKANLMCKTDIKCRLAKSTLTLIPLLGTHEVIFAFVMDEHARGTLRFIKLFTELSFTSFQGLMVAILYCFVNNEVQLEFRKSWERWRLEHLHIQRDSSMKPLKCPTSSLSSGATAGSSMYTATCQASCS

[2] = target: T1, human GLP-1 receptor; assay: GLP-1 receptor binding: displacement of 125I-GLP-1 (SPA) at low and high albumin; parameters: expressed in transfected cells; membranes; settings: 2.0% HSA; displacement of 125I-GLP-1, BHK tk-ts13 membranes
Procedure: The binding affinity of the GLP-1 receptor agonist derivatives of Examples 1-12 to the human GLP-1 receptor was measured by way of their ability to displace of ^125I-GLP-1 from the receptor.
In order to test the binding of the derivatives to albumin, the assay was performed with a low concentration of albumin (0.005%—corresponding to the residual amount thereof in the tracer), as well as with a high concentration of albumin (2.0% added).
Species (in vitro): Hamster
Biological End Point: Receptor Binding
A stable transfected cell line and a high expressing clone were selected for screening. The cells were grown at 5% CO2 in DMEM, 10% FCS, 1% Pen/Strep (Penicillin/Streptomycin) and 1.0 mg/ml of the selection marker G418.
The cells (approx. 80% confluence) were washed twice in PBS and harvested with Versene (aqueous solution of the tetrasodium salt of ethylenediaminetetraacetic acid), following which they were separated by centrifugation at 1000 rpm for 5 min. The cells/cell pellet must be kept on ice to the extent possible in the subsequent steps. […] The resulting pellet was resuspended in Buffer 2, and the protein concentration was determined. […]
Test compounds, membranes, SPA-particles and [^125I]-GLP-1(7-36)NH2 were diluted in assay buffer. […] The plates were centrifuged (1500 rpm, 10 min) and counted in Topcounter. […]

Which EC50 [1] does the source give for CC[C@H](C)[C@H](NC(=O)[C@H](Cc1ccccc1)NC(=O)[C@H](CCC(=O)O)NC(=O)[C@H](CCCCNC(=O)COCCOCCNC(=O)COCCOCCNC(=O)CC[C@H](NC(=O)CCCCCCCCCCCCCCCCC(=O)O)C(=O)O)NC(=O)[C@H](C)NC(=O)[C@H](C)NC(=O)[C@H](CCC(N)=O)NC(=O)CNC(=O)[C@H](CCC(=O)O)NC(=O)[C@H](CC(C)C)NC(=O)[C@H](Cc1ccc(O)cc1)NC(=O)[C@H](CO)NC(=O)[C@H](CO)NC(=O)[C@@H](NC(=O)[C@H](CC(=O)O)NC(=O)[C@H](CO)NC(=O)[C@@H](NC(=O)[C@H](Cc1ccccc1)NC(=O)[C@@H](NC(=O)CNC(=O)[C@H](CCC(=O)O)NC(=O)CCCC(=O)c1ccccc1)[C@@H](C)O)[C@@H](C)O)C(C)C)C(=O)N[C@@H](C)C(=O)N[C@@H](Cc1c[nH]c2ccccc12)C(=O)N[C@@H](CC(C)C)C(=O)N[C@H](C(=O)N[C@@H](CCCNC(=N)N)C(=O)NCC(=O)N[C@@H](CCCNC(=N)N)C(=O)NCC(=O)O)C(C)C [Example 11, N^9-(5-oxo-5-phenylpentanoyl), N^ε26-[2-[2-[2-[[2-[2-[2-[[(4S)-4-carboxy-4-(17-carboxyheptadecanoylamino)butanoyl]amino]ethoxy]ethoxy]acetyl]amino]ethoxy]ethoxy]acetyl]-[Arg^34]-GLP-1-(9-37)-peptide] here?
The EC50 was > 8 nM.

What about the IC50 [2] of the same molecule?
The IC50 was > 800 nM.
